Values after ≈ are worked out from the molar mass of the structure shown.
Columns and labels:
Nucleic Acid [1] = assay: Binding affinity to A site of biotinylated 16S rRNA (unknown origin) by surface plasmon resonance analysis; assay type: nucleic-acid assay
Nucleic Acid [2] = assay: Binding affinity to biotinylated HIV1 trans-activation response element RNA by surface plasmon resonance analysis; assay type: nucleic-acid assay, Human immunodeficiency virus 1
Escherichia coli = assay: Antibacterial activity against Escherichia coli ATCC 25922 after 18 hrs; assay type: functional; settings: ATCC 25922, 18 h
Staphylococcus aureus = assay: Antibacterial activity against Staphylococcus aureus ATCC 29213 after 18 hrs; assay type: functional; settings: ATCC 29213, 18 h
Pseudomonas aeruginosa = assay: Antibacterial activity against Pseudomonas aeruginosa ATCC 27853 after 18 hrs; assay type: functional; settings: ATCC 27853, 18 h

SMILES	Kd (Nucleic Acid [1]) [µM]	Kd (Nucleic Acid [2]) [µM]	MIC (Escherichia coli) [µM]	MIC (Staphylococcus aureus) [µM]	MIC (Pseudomonas aeruginosa) [µM]
NCCCC[C@H](N)C(=O)NCCN[C@H]1[C@@H](O)[C@H](N)C[C@H](N)[C@@H]1O[C@H]1O[C@H](CN)[C@@H](O)[C@H](O)[C@H]1N	1	2	50 (≈ 24.6 µg/mL)	25 (≈ 12.3 µg/mL)	> 100
NC[C@H]1O[C@H](O[C@H]2[C@H](O)[C@@H](O)[C@H](N)C[C@@H]2N)[C@H](N)[C@@H](O)[C@@H]1O [NEAMINE]	19	24	50 (≈ 16.1 µg/mL)	50 (≈ 16.1 µg/mL)	> 100
N=C(N)NCCC[C@H](N)C(=O)NCCN[C@H]1[C@@H](O)[C@H](N)C[C@H](N)[C@@H]1O[C@H]1O[C@H](CN)[C@@H](O)[C@H](O)[C@H]1N	2	3	100 (≈ 52.1 µg/mL)	> 100	> 100
NCCN[C@H]1[C@@H](O)[C@H](N)C[C@H](N)[C@@H]1O[C@H]1O[C@H](CN)[C@@H](O)[C@H](O)[C@H]1N	7	14	100 (≈ 36.4 µg/mL)	> 100	50 (≈ 18.2 µg/mL)
